Experimental data published in US8513423B2 (Janssen Pharmaceutica, NV, priority 2010, dated 2013).
Substitutions are numbered along the chain they refer to. Like-named read-outs stand apart in the source and are kept apart here.

What was measured:
mutant MGL = molecular target: T1, mutant MGL (Homo sapiens, UniProt Q99685, L169S/L176S); test: MGL ThermoFluor assay - mutant; type: binding
T1 construct: purified mutant MGL (mut-MGLL 11-313 L179S L186S)
T1 sequence (Q99685 1-303 L169S/L176S): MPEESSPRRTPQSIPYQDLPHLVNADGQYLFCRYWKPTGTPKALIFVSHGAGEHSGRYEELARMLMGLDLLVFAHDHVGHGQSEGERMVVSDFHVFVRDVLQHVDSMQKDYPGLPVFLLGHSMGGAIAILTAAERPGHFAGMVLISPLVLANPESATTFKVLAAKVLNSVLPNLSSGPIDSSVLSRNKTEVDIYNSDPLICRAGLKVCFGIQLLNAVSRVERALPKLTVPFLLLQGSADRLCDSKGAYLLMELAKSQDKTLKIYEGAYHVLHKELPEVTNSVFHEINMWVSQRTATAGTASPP
Procedure: The ThermoFluor (TF) assay is a 384-well plate-based binding assay that measures thermal stability of proteins^1,2. The experiments were carried out using instruments available from Johnson & Johnson Pharmaceutical Research & Development, LLC. TF dye used in all experiments was 1,8-ANS (Invitrogen: A-47). Final TF assay conditions used for MGL studies were 0.07 mg/ml of mutant MGL, 100 μM ANS, 200 mM NaCl, 0.001% Tween-20 in 50 mM PIPES (pH=7.0).
Screening compound plates contained 100% DMSO compound solutions at a single concentration. For follow-up concentration-response studies, compounds were arranged in a pre-dispensed plate (Greiner Bio-one: 781280), wherein compounds were serially diluted in 100% DMSO across 11 columns within a series. Columns 12 and 24 were used as DMSO reference and contained no compound. For both single and multiple compound concentration-repsonse experiments, the compound aliquots (46 nL) were robotically predispensed directly into 384-well black assay plates (Abgene: TF-0384/k) using the Hummingbird liquid handler. Following compound dispension, protein and dye solutions were added to achieve the final assay volume of 3 μL. The assay solutions were overlayed with 1 μl of silicone oil (Fluka, type DC 200: 85411) to prevent evaporation.
Bar-coded assay plates were robotically loaded onto a thermostatically controlled PCR-type thermal block and then heated from 40 to 90° C. degrees at a ramp-rate of 1° C./min for all experiments. Fluorescence was measured by continuous illumination with UV light (Hamamatsu LC6), supplied via fiber optics and filtered through a band-pass filter (380-400 nm; >6 OD cutoff). Fluorescence emission of the entire 384-well plate was detected by measuring light intensity using a CCD camera (Sensys, Roper Scientific) filtered to detect 500±25 nm, resulting in simultaneous and independent readings of all 384 wells. A single image with 20-sec exposure time was collected at each temperature, and the sum of the pixel intensity in a given area of the assay plate was recorded vs temperature and fit to standard equations to yield the Tm^1. • 1. Pantoliano, M. W., Petrella, E. C., Kwasnoski, J. D., Lobanov, V. S., Myslik, J., Graf, E., Carver, T., Asel, E., Springer, B. A., Lane, P., and Salemme, F. R. (2001) J Biomol Screen 6, 429-40. • 2. Matulis, D., Kranz, J. K., Salemme, F. R., and Todd, M. J. (2005) Biochemistry 44, 5258-66.
The Kd values for compounds of Formula (I) were determined from a fit of the equation to the concentration-response plot of the fractional activity as a function of Tm. For some experiments, quantitative NMR spectroscopy (qNMR) was used to measure concentration of the initial 100% DMSO compound solutions and, using the same fitting method, qKd values were determined

[1] = molecular target: T2, purified wild type MGL (wt-MGLL 6H-11-313) (Homo sapiens, UniProt Q99685); test: MGL enzyme activity assay (4MU-B cleavage), wild type MGL; type: biochemical; settings: 10 μM 4MU-B, 5 nM enzyme, 37° C., read-out: MGL wild type inh IC50
T2 construct: purified wild type MGL (wt-MGLL 6H-11-313)
T2 sequence (Q99685 1-303): T1 sequence (Q99685 1-303 L169S/L176S) with S169L, S176L
Procedure: All rate-based assays were performed in black 384-well polypropylene PCR microplates (Abgene) in a total volume of 30 μL. Substrate 4-methylumbelliferyl butyrate (4MU-B; Sigma) and either purified mutant MGL (mut-MGLL 11-313 L179S L186S) or purified wild type MGL (wt-MGLL 6H-11-313) were diluted separately into 20 mM PIPES buffer (pH=7.0), containing 150 mM NaCl and 0.001% Tween 20. Compounds of Formula (I) were pre-dispensed (50 nL) into the assay plate using a Cartesian Hummingbird prior to adding 4MU-B (25 μL of 1.2× solution to a final concentration of 10 μM) followed by enzyme (5 μL of a 6× solution to a final concentration of 5 nM) to initiate the reaction. Final compound concentrations ranged from 17 to 0.0003 μM. The fluorescence change due to 4MU-B cleavage was monitored with excitation and emission wavelengths of 335 and 440 nm, respectively, and a bandwidth of 10 nm (Safire^2, Tecan) at 37° C. for 5 min.
The IC50 values for compounds of Formula (I) were determined using Excel from a fit of the equation to the concentration-response plot of the fractional activity as a function of inhibitor concentration.

[2] = 0.07 mg/ml mutant MGL, pH=7.0, read-out: MGL mutant ThermoFluor Kd
[3] = compound concentration measured by qNMR, read-out: MGL mutant ThermoFluor qKd (using qNMR conc.)

| Kd (mutant MGL; [2]) | IC50 [1] | Kd (mutant MGL; [3]) | SMILES |
| --- | --- | --- | --- |
| 5.5 nM | < 5 nM | – | O=C(c1ccc2c(ccn2-c2ccc(Cl)cn2)c1)N1CC(C2CCN(C(=O)c3nccs3)CC2)C1 [Cpd 93, 1-(5-Chloropyridin-2-yl)-5-({3-[1-(1,3-thiazol-2-ylcarbonyl)piperidin-4-yl]azetidin-1-yl}carbonyl)-1H-indole] |
| 0.6 nM | < 5 nM | – | O=C(c1ccc2c(ccn2-c2ccc(F)c(F)c2)c1)N1CC(C2CCN(C(=O)c3nccs3)CC2)C1 |
| – | 10 nM | 24.9 nM | O=C(c1cc2ccc(C(F)(F)F)cc2s1)N1CC(C2(O)CCN(C(=O)c3nccs3)CC2)C1 [Cpd 94, 1-(1,3-Thiazol-2-ylcarbonyl)-4-(1-{[6-(trifluoromethyl)-1-benzothiophen-2-yl]carbonyl}azetidin-3-yl)piperidin-4-ol] |
| 258 nM | 918 nM | – | O=C(c1ccccc1)N1CCC(O)(C2CN(C(=O)c3cc4cc(C(F)(F)F)ccc4s3)C2)CC1 [Cpd 6, 1-(Phenylcarbonyl)-4-(1-{[5-(trifluoromethyl)-1-benzothiophen-2-yl]carbonyl}azetidin-3-yl)piperidin-4-ol] |
| – | 78.1 nM | 24.7 nM | O=C(c1ccc2c(c1)[nH]c(=O)n2-c1ccccc1)N1CC(C2CCN(C(=O)c3nccs3)CC2)C1 [Cpd 96, 1-Phenyl-5-({3-[1-(1,3-thiazol-2-ylcarbonyl)piperidin-4-yl]azetidin-1-yl}carbonyl)-1,3-dihydro-2H-benzimidazol-2-one] |
| – | < 5 nM | 2.3 nM | O=C(c1ccc2c(ccn2-c2ccc(F)c(F)c2)c1)N1CCC(C2CN(C(=O)c3nccs3)C2)CC1 [Cpd 78, 1-(3,4-Difluorophenyl)-5-({4-[1-(1,3-thiazol-2-ylcarbonyl)azetidin-3-yl]piperidin-1-yl}carbonyl)-1H-indole] |
| 162 nM | 154 nM | – | O=C(c1cc[nH]c1)N1CCC(C2CN(C(=O)c3ccc(-c4ccccc4)cc3)C2)CC1 [Cpd 4, 4-[1-(Biphenyl-4-ylcarbonyl)azetidin-3-yl]-1-(1H-pyrrol-3-ylcarbonyl)piperidine] |
| – | 35.5 nM | 22.8 nM | O=C(c1ccc2c(c1)ncn2-c1ccc(F)c(F)c1)N1CC(C2CCN(C(=O)c3nccs3)CC2)C1 [Cpd 82, 1-(3,4-Difluorophenyl)-5-({3-[1-(1,3-thiazol-2-ylcarbonyl)piperidin-4-yl]azetidin-1-yl}carbonyl)-1H-benzimidazole] |
| 500 nM | 368 nM | – | O=C(c1cccc(-c2cccc(F)c2)c1)N1CC(C2CCN(C(=O)c3ccc[nH]3)CC2)C1 [Cpd 23, 4-{1-[(3′-Fluorobiphenyl-3-yl)carbonyl]azetidin-3-yl}-1-(1H-pyrrol-2-ylcarbonyl)piperidine] |
| – | 31.6 nM | 7.5 nM | Cc1nc2cc(C(=O)N3CC(C4CCN(C(=O)c5nccs5)CC4)C3)ccc2n1-c1ccc(F)cc1 [Cpd 87, 1-(4-Fluorophenyl)-2-methyl-5-({3-[1-(1,3-thiazol-2-ylcarbonyl)piperidin-4-yl]azetidin-1-yl}carbonyl)-1H-benzimidazole] |
| – | 34.1 nM | 7.7 nM | Cc1nc2cc(C(=O)N3CC(C4CCN(C(=O)c5nccs5)CC4)C3)ccc2n1-c1ccc(C(F)(F)F)cc1 [Cpd 89, 2-Methyl-5-({3-[1-(1,3-thiazol-2-ylcarbonyl)piperidin-4-yl]azetidin-1-yl}carbonyl)-1-[4-(trifluoromethyl)phenyl]-1H-benzimidazole] |
| – | 18.7 nM | 10.6 nM | Cc1nc2cc(C(=O)N3CC(C4CCN(C(=O)c5nccs5)CC4)C3)ccc2n1-c1ccccc1 [Cpd 86, 2-Methyl-1-phenyl-5-({3-[1-(1,3-thiazol-2-ylcarbonyl)piperidin-4-yl]azetidin-1-yl}carbonyl)-1H-benzimidazole] |
| 64.1 nM | 87.6 nM | – | O=C(c1ccc(-c2ccccc2)cc1)N1CC(C2CCN(C(=O)c3cncs3)CC2)C1 [Cpd 5, 4-[1-(Biphenyl-4-ylcarbonyl)azetidin-3-yl]-1-(1,3-thiazol-5-ylcarbonyl)piperidine] |
| – | 163 nM | 3.4 nM | Cc1nc2cc(C(=O)N3CC(C4CCN(C(=O)c5nccs5)CC4)C3)ccc2n1C1CCC(F)(F)CC1 [Cpd 92, 1-(4,4-Difluorocyclohexyl)-2-methyl-5-({3-[1-(1,3-thiazol-2-ylcarbonyl)piperidin-4-yl]azetidin-1-yl}carbonyl)-1H-benzimidazole] |
| – | 17.3 nM | 16.7 nM | O=C(c1ccc2c(c1)[nH]c(=O)n2-c1ccc(C(F)(F)F)cc1)N1CC(C2CCN(C(=O)c3nccs3)CC2)C1 [Cpd 99, 5-({3-[1-(1,3-Thiazol-2-ylcarbonyl)piperidin-4-yl]azetidin-1-yl}carbonyl)-1-[4-(trifluoromethyl)phenyl]-1,3-dihydro-2H-benzimidazol-2-one] |
| – | 280 nM | 64.5 nM | O=C(c1ccc2c(c1)ncn2CCC(F)(F)F)N1CC(C2CCN(C(=O)c3nccs3)CC2)C1 [Cpd 85, 5-({3-[1-(1,3-Thiazol-2-ylcarbonyl)piperidin-4-yl]azetidin-1-yl}carbonyl)-1-(3,3,3-trifluoropropyl)-1H-benzimidazole] |
| – | 173 nM | 23.7 nM | Cc1nc2cc(C(=O)N3CC(C4CCN(C(=O)c5nccs5)CC4)C3)ccc2n1CC(F)(F)F [Cpd 90, 2-Methyl-5-({3-[1-(1,3-thiazol-2-ylcarbonyl)piperidin-4-yl]azetidin-l-yl}carbonyl)-1-(2,2,2-trifluoroethyl)-1H-benzimidazole] |
| – | < 5 nM | 1 nM | O=C(c1ccc(-c2cccc(C(F)(F)F)c2)cc1)N1CCC(C2CN(C(=O)c3nccs3)C2)CC1 [Cpd 48, 4-[1-(1,3-Thiazol-2-ylcarbonyl)azetidin-3-yl]-1-{[3′-(trifluoromethyl)biphenyl-4-yl]carbonyl}piperidine] |
| 100 nM | 114 nM | – | O=C(c1cscn1)N1CCC(C2CN(C(=O)c3ccc(-c4ccccc4)cc3F)C2)CC1 [Cpd 9, 4-{1-[(3-Fluorobiphenyl-4-yl)carbonyl]azetidin-3-yl}-1-(1,3-thiazol-4-ylcarbonyl)piperidine] |
| 0.6 nM | 211 nM | 0.5 nM | Cc1c(C(=O)N2CCC(C3CN(C(=O)c4cscn4)C3)CC2)sc2cc(C(F)(F)F)ccc12 [Cpd 61] |
